The record followed here is paper PMC10266451, “SKF96365 modulates activity of CatSper channels in human sperm” (Molecular Human Reproduction, 2023).

Assay type in all cases: cell-based
In experiment [1] the target is T1, CatSper (cation channel of sperm) (Homo sapiens, UniProt Q7RTX7+Q86XQ3+Q8NEC5+Q96P56).
T1 construct: gene CATSPER1; native channel complex in capacitated donor spermatozoa; with Cation channel sperm-associated auxiliary subunit beta; Cation channel sperm-associated auxiliary subunit gamma; Cation channel sperm-associated auxiliary subunit delta; Cation channel sperm-associated auxiliary subunit epsilon; Cation channel sperm-associated auxiliary subunit zeta
The experiment can be described thus: fluo4 Ca2+ population fluorimetry in human sperm. Conditions: activation, capacitated intact sperm, sEBSS with BSA, whole-cell [Ca2+]i read-out attributed to CatSper.

The target of experiment [2] is T1, CatSper (cation channel of sperm). The experiment can be described thus: whole-cell patch clamp of human sperm, Cs+ CatSper currents. The note with it: activation within 30 s, followed by secondary block; divalent-free Cs+ solutions, ramps -80 to 80 mV. Background: Patch clamp records ionic current or voltage across a cell membrane.
Experiment [3] shares this target. Described as above. Conditions: activation, stable; divalent-free Cs+ solutions, ramps -80 to 80 mV; direct binding to CatSper not tested.

With `COc1ccc(CCCOC(Cn2ccnc2)c2ccc(OC)cc2)cc1` (stereo not shown) [SKF96365], the EC50 in experiment [1] (mechanism distinct from progesterone) was determined as 9.5 µM. The “% current enhancement at 30 μM” value in experiment [2] was determined as 100%.
With `CC(=O)[C@H]1CC[C@H]2[C@@H]3CCC4=CC(=O)CC[C@]4(C)[C@H]3CC[C@]12C` [progesterone], the “% current increase at 3 μM” value in experiment [3] amounted to 200%. Besides, in experiment [1] (direct binding to CatSper not tested), the EC50 came to 0.032 µM.

For orientation: EC50 means the concentration giving half of the maximal effect.
